Results: article PMC9377006, “Discovery of Desmuramylpeptide NOD2 Agonists with Single-Digit Nanomolar Potency” (ACS Medicinal Chemistry Letters, 2022)

System: PBMCs
Test: Cytokine release from peripheral blood mononuclear cells
Format: cell-based
Conditions: human PBMCs
Text: Encouraged by the potent NOD2 activity of 40, we preliminarily evaluated its immunostimulatory potential in human primary peripheral blood mononuclear cells (PBMCs). Specifically, we first investigated the ability of 40 to induce cytokine production in PBMCs. While activation of NOD2 alone is sufficient to elicit cytokine responses, these responses are usually of low intensity. However, NOD2 agonists can act in synergy with ligands of other innate immune receptors and proinflammatory cytokines to induce considerably stronger responses. We were particularly intrigued by the synergistic interactions between NOD2, TLR4, and IFN-γ. The synergy between NOD2 agonists and TLR4 agonists in terms of cytokine secretion, including IFN-γ, is well-established.[29],[30] Similarly, IFN-γ has previously been reported to augment the MDP-mediated activation and cytokine production by dendritic cells and macrophages.[31],[32]
Figure 2 Synergistic effects of 40 with LPS and IFN-γ on induction of cytokine production from PBMCs. Cytokine concentrations were measured after 18 h of stimulation with NOD2 agonists (1 μM) in the presence or absence of LPS (10 ng/mL) and IFN-γ (200 U/mL) or the corresponding vehicle (0.1% DMSO; NT). Data are expressed as mean ± SEM of three independent experiments. Statistical significance was determined by one-way ANOVA followed by Bonferroni’s multiple-comparisons test; *, p < 0.05, **, p < 0.01, ***, p < 0.001 versus vehicle-treated control; ##, p < 0.01, ###, p < 0.001 versus 40 or LPS alone.
Figure S5. The effect of 40 on the production of cytokines from human PBMCs is NOD2 -dependent. PBMCs were pre-incubated for 1 h in the presence or absence of the NOD2 antagonist SG84 (10 µM), before the addition of 40 (1 µM). Cytokine concentrations in supernatants were measured after 18 h stimulation.
Data are expressed as mean s ± SEM of 3 independent experiments. Statistical significance was determined by one-way ANOVA followed by Bonferroni’s multiple comparisons test; **, p < 0.01, ***, p < 0.001. […]
4.9 Cytokine release from peripheral blood mononuclear cells
Peripheral blood mononuclear cells were seeded ( 500,000 cells/well) in 24-well plates in 500 µL growth medium and treated with MDP (1 µM), 2 (1 µM), or 40 (1 µM), in the presence or absence of LPS (10 ng/mL) or IFN-γ (200 U/mL), or the corresponding vehicle (0.1% DMSO). In some wells, PBMCs were pre-treated for 1 h with the NOD2 antagonist SG84 (10 µM), before the addition of 40 (1 µM). Cell-free supernatants were collected after 18 h of incubation (37 °C, 5% CO2) and stored at -80 °C until tested.
Cytokine production was determined with BD Cytometric Bead Array human inflammatory cytokines kit (BD Bioscience) on an Attune NxT flow cytometer (Thermo Fisher Scientific, Waltham, MA, USA). Standard curves were generated using recombinant cytokines contained in the kit. The data were analyzed using the FlowJo (Tree Star, Inc., Ashland, OR, USA) and Prism (GraphPad, San Diego, CA, USA) software.

CCOC(=O)CC[C@@H](NC(=O)[C@@H](NC(=O)CNC(=O)/C=C/c1ccc(OC(=O)CC23CC4CC(CC(C4)C2)C3)c(OC)c1)C(C)C)C(=O)OCC [Compound 40]
production of IL-1β, IL-6 and TNF-α in combination with IFN-γ (1 μM + IFN-γ 200 U/mL, 18 h): synergistically increased
production of IL-8 in combination with IFN-γ (1 μM + IFN-γ 200 U/mL, 18 h): no apparent effect
production of IL-1β, IL-6 and TNF-α in combination with LPS (1 μM + LPS 10 ng/mL, 18 h): superadditive manner
NOD2 dependence of cytokine production (40 1 µM, pretreatment with NOD2 antagonist SG84 10 µM): entirely NOD2-dependent
production of IL-1β, IL-6, IL-8 and TNF-α, stimulant alone (18 h, NOD2 agonists 1 μM, LPS 10 ng/mL, IFN-γ 200 U/mL): modest production
